Measured values published in patent US8916612B2, “Agmatine containing dietary supplements, nutraceuticals, and foods” (priority 2008, dated 2014).
Values joined by “and” are separate entries in the source; they are usually repeats but may differ in a detail not shown here. Equal entries are not always repeated.

What was measured:
[1] = system: participants with lumbar disc-associated radiculopathy; experiment: Randomized, double-blind, placebo-controlled trial in lumbar disc-associated radiculopathy; type: in vivo, human; settings: 2.670 g/day for 14 days
Text: This recommendation is supported by recent clinical trials (Keynan O, Mirovsky Y, Dekel S, Gilad V H, Gilad G M. Safety and efficacy of dietary agmatine sulfate in lumbar disc-associated radiculopathy. An open label, dose-escalating study followed by a randomized, double-blind, placebo-controlled trial. Pain Med, (2010) in press). […] In the randomized, double-blind, placebo-controlled (RCT) trial, eligible participants received either placebo or agmatine sulfate (2.670 g/day for 14 days) in a double-blind fashion. Analysis was performed on 30 participants in the placebo and 31 in the agmatine sulfate arm. […] Secondary outcomes included assessments of safety and tolerability. […] While the severity of pain symptoms and general health status improved with time in both placebo and agmatine sulfate-treated groups, the improvements were more pronounced in the agmatine sulfate-treated group. […] Importantly, none of the participants reported worsening in their general health status.
Results, mean (±SEM, vertical lines) values are expressed as percent of baseline values. Asterisks indicate significant differences between the placebo- and agmatine sulfate-treated groups (p 0.033).

[2] = system: humans; experiment: Open label dose-escalating safety and tolerability study of dietary agmatine sulfate capsules (Example I); type: in vivo, human; settings: oral doses of up to 2.67 g/day for over 2 years
[3] = system: facial nerve crush in male Wistar rats; experiment: Vibrissae functional recovery after facial nerve crush following prior agmatine sulfate intake (Example III); type: in vivo, rat
Procedure: The experiment was performed at Assaf Harofeh Medical Center, Israel, with 4-month-old male Wistar rats (Harlan, Israel) kept under standard conditions in the Institute's vivarium according to the Institutional Animal Care and Use Committee approved protocols (see Example II above). […] rats were divided into 2 groups of 14 animals each, one group drank sterile water containing agmatine sulfate 5.3 g/l, while the other drank regular sterile drinking-water for a period of 21 days. On day 21 both groups were switched to drink regular tap water. In 7 rats from each group the facial nerve was crushed unilaterally while the other 7 were left unoperated. Surgery was performed under halothane anesthesia (1.5% in 100% 02) and the facial nerve was crushed unilaterally at the stylomastoid foramen for 20 seconds with a jeweler's forceps under the operating microscope.
Transection of the facial nerve, which innervates the upper and lower lips results in paralysis of the vibrissae (whiskers) on the operated side. Functional recovery was assessed by evaluation of vibrissae movement for up to 14 days postoperatively using the following arbitrary scale of 0 to 4:0, complete paralysis with vibrissae flattened backwardly; —1, slight vibrating motion; —2, mild proximal vibrating motion; —3 moderate motion of vibrissae and lips; 4, full motion of lower face and vibrissae. Results were evaluated by analysis of variance (ANOVA) procedure followed by Bonferroni post hoc testing and differences considered significant at p<0.05.
B. sterile water containing agmatine and unoperated (controls, semisolid circle). C. Regular sterile drinking-water and nerve crush (solid square). D. sterile water containing agmatine and nerve crush (solid triangle). Results are the mean (±SEM, vertical lines) values of 7 animals. *=p<0.001 comparing group C to group D values.

[4] = system: male Wistar rats; experiment: Sub-chronic intake of high dose agmatine sulfate in the drinking water (Example II); type: in vivo, rat; settings: for Blood Pressure (mmHg), systolic, mean / Daily Drinking (ml), mean / Body Weight (g), mean: group mean; for Body Weight / Blood Pressure (mmHg), systolic / Daily Drinking: individual animal, sulfate
Procedure: The experiment was performed at Assaf Harofeh Medical Center, Israel, according to the Institutional Animal Care and Use Committee approved protocol. Three-month-old male Wistar rats (Harlan, Israel) weighing 250±20 g were caged individually under standard vivarium conditions of temperature (22±2° C.), humidity (55-75%) and light (12 h light-dark cycle) with a free supply of food and water. Experimental animals (n=10) drank sterile water containing agmatine sulfate 5.3 g/l, while controls (n=10) drank regular sterile drinking-water for 95 days. Drinking-water containing agmatine sulfate have bitter taste.
Animal body weight and systolic blood pressure (SBP) as measured by tail-cuff plethysmography (IITC Life Science, Woodland Hills, Calif.) were measured at the starting day of the experiment (day 1) and at various intervals thereafter. General behavior, fur appearance and feces appearance were also assessed. Water consumption was measured daily. After 95 days, 5 animals of each group were deeply anesthetized ([…] sodium pentobarbital, intraperitoneal) and the stomach, kidney, heart and liver removed for gross inspection. The stomach was inspected for appearance of ulcers. The rest of the animals, in both the control and experimental groups, were all maintained on regular diet (without agmatine sulfate in the drinking-water) for additional 20 days and then killed (on the 115th day). Results were evaluated by analysis of variance (ANOVA) procedure. Differences were analyzed by 2-tailed t-test and values of p≦0.05 were considered statistical significant. For data normalization, differences were expressed as percent change of day 1 values.

[5] = system: humans; experiment: Open label dose-escalating safety and tolerability study of dietary agmatine sulfate capsules (Example I); type: in vivo, human; settings: for Adverse Effects (no. of participants): Nausea and Diarrhea: 12 participants
Procedure: This study is based on administration to humans weighing 60 to 70 kg.
Agmatine sulfate was manufactured according to international standards ISO 9001. It was encapsulated under cGMP (current Good Manufacturing Practice) conditions in gelatin-glycerin capsules as the sole active ingredient of the dietary supplement and the capsules packaged in properly labeled plastic container bottles.
The study was performed at Tel-Aviv Sourasky Medical Center, Israel and approved by the Institutional Review Board (Trial Number: 05-302) and by the Israel Ministry of Health National Review Board (Trial Number: 20050479), and conducted in accordance with the Helsinki guidelines under current Good Clinical Practice (cGCP) and the International Conference on Harmonization (ICH) guidelines. All procedures were performed after participants had read, understood and signed the informed consent form. Eligibility of consenting participants was determined after medical history recording, comprehensive clinical examination, and laboratory tests of blood samples to ensure inclusion/exclusion criteria.
Inclusion Criteria: 1) Men and women 18-75 years of age, including also those diagnosed with spine skeletal pathologies causing nerve compression. 2) Women must be non-pregnant, non-lactating, or sterilized, or postmenopausal. 3) All participants must give a signed informed consent.
Exclusion Criteria: 1) Those with any significant clinical, medical or surgical condition, such as: cardiovascular, pulmonary, hepatic, renal, immune, endocrine, metabolic, digestive, malignancy, or allergic, and those with deviations from the normal laboratory test values. 2) Those with any neuromuscular diseases (other than spine skeletal pathologies causing nerve compression). 3) Those with any neurological diseases. 4) Those with any history of alcohol or substance abuse within the last 2 years. 5) Those with gastric ulcer history. 6) Those who took any experimental drug within 90 days prior to screening. 7) Women who are pregnant or breast feeding. 8) Those participating in other clinical trials.
At the starting day of the study eligible participants began taking the supplement and had the option of receiving concomitantly any conventional treatment [e.g. drug treatment or physiotherapy] as needed for their welfare, and this was recorded throughout the duration of the study. However, any other experimental drug or dietary supplement was disallowed.
Table 1 details the escalating doses and regimens taken by the consecutive cohorts. Following screening to ensure inclusion/exclusion criteria, 48 men and women, 28 to 70 years old were recruited consecutively to the study after they gave a signed informed consent. Eligible participants took 3 times a day, after meals (morning, noontime and evening), the specified daily dose of agmatine sulfate capsules. Each capsule contained 445 mg of agmatine sulfate (Table 1).
Before beginning and within 5 days after termination—and before the next cohort began taking the supplement—all cohort participants underwent thorough clinical evaluation and routine laboratory tests of blood samples to ascertain normal function of the cardiovascular, hepatic, renal, immune and metabolic systems.
In-person evaluations were performed at: 11-15 days, 22-25 days, 40-45 days after treatment starting day (day 1), and then telephone interview evaluations every 3-6 months for the duration of the trial. The flow chart (2) outlined in FIG. 2 illustrates the treatment and follow-up schedules as exemplified for a 10-day cohort. In addition, participants received a “participant diary” for self recording of any outstanding health related events during the treatment interval.
For the sake of privacy, all records and data were identified only by participants' code number. All “source data” documents were stored in individual patient files and kept at the clinical center by the principal investigator and copies are kept with the study sponsor. […]

[6] = Day 115 (20 days after treatment)
[7] = 4th Cohort, 3.560 g/day for 21 days

## N=C(N)NCCCCN.O=S(=O)(O)O [agmatine sulfate]
[1]; 31 participants
  Adverse effects during the trial: no adverse effects were noted
[1]; follow-up 15-20 day, p=0.013
  Improvement in general health status, SF-36 Total Score, compared to placebo: statistically significant enhanced improvements
[1]; follow-up 15-20 day, p=0.033
  Improvement in pain measures (Visual Analogue Scale) compared to placebo: statistically significant enhanced improvements
[2]
  Adverse effects: have not been associated with any adverse effects
[3]; controls: day 14
  Day after injury at which nearly full recovery of vibrissae movement is achieved: 12 days
[3]; day 10 after injury, 5.3 g/l in drinking water for 21 days before crush
  Increase in vibrissae motion as compared to controls (group C): 181.2%
[3]; group D vs group C, p<0.001
  Recovery of vibrissae movement: significantly accelerated recovery of vibrissae movement
[4]; 95 days treatment
  General cage behavior, fur appearance and feces appearance: all normal
[4]; Day 1
  Blood Pressure (% Change), percent of day 1: (100) %
  Body Weight (% Change), percent of day 1: (100) %
  Daily Drinking (% Change), percent of day 1: (100) %
  Blood Pressure (mmHg), systolic, mean: 106.4 mmHg
  Daily Drinking (ml), mean: 34.8 mL
  Daily Drinking: 35.5 ml and 34.8 ml and 35.6 ml (2×) and 34.7 ml and 33.4 ml and 35.0 ml (2×) and 33.8 ml and 34.5 ml
[4]; Day 21
  Blood Pressure (% Change), percent of day 1: (97.3) %
  Body Weight (% Change), percent of day 1: (97.6) %
  Daily Drinking (% Change), percent of day 1: (72.1) %
  Blood Pressure (mmHg), systolic: 97.0 mmHg and 95.0 mmHg and 100.0 mmHg (2×) and 109.0 mmHg and 115.0 mmHg and 103.0 mmHg (2×) and 107.0 mmHg and 106.0 mmHg
  Daily Drinking: 21.4 mL and 25.3 mL and 25.1 mL and 25.0 mL and 24.1 mL and 25.5 mL and 26.4 mL and 24.9 mL and 27.0 mL and 26.7 mL
[4]; Day 95
  Blood Pressure (% Change), percent of day 1: (96.9) %
  Body Weight (% Change), percent of day 1: (102.2) %
  Daily Drinking (% Change), percent of day 1: (83.9) %
  Blood Pressure (mmHg), systolic: 95.0 mmHg and 97.0 mmHg and 101.0 mmHg (2×) and 110.0 mmHg and 112.0 mmHg and 105.0 mmHg (2×) and 106.0 mmHg and 99.0 mmHg
  Daily Drinking: 25.6 ml and 28.7 ml and 30.0 ml (2×) and 27.7 ml and 29.6 ml and 30.3 ml and 28.4 ml and 31.3 ml and 30.6 ml
[4]; Day 115
  Blood Pressure (% Change), percent of day 1: (99.1) %
  Body Weight (% Change), percent of day 1: (103.9) %
  Daily Drinking (% Change), percent of day 1: (99.7) %
[4]; after 95 days of treatment
  Weight gain after switch to regular drinking water: recovery in weight gain within 20 days
[4]; during treatment
  Weight gain: reduced weight gain with actual weight loss during the first 3 weeks of treatment
[4]; during treatment, 5.3 g/l in drinking water
  Volume of water intake: reduction in volume of water intake
[4]; during treatment, recovered 20 days after cessation
  Systolic blood pressure: slight, but significant reduction
[4]; Day 1, n=10
  Body Weight (g), mean: 253.4 g
[4]; Day 21, p<0.05 vs day 1
  Blood Pressure (mmHg), systolic, mean: 103.5 ± mmHg
  Body Weight (g), mean: 247.3 ± g
  Daily Drinking (ml), mean: 25.1 ± ml
[4]; Day 95, p<0.05 vs day 1
  Blood Pressure (mmHg), systolic, mean: 103.1 ± mmHg
  Body Weight (g), mean: 258.9 ± g
  Daily Drinking (ml), mean: 29.2 ± ml
[4]; Day 115 (20 days after treatment), n=5, p<0.05 vs day 1
  Body Weight (g), mean: 261.4 ± g
[4]; Day 115, n=5
  Blood Pressure (mmHg), systolic, mean: 105.8 mmHg
  Daily Drinking (ml), mean: 34.9 mL
[4]; Day 1 (beginning), 5.3 g/l in drinking water
  Body Weight: 250 g (2×) and 265 g and 255 g and 257 g and 247 g and 245 g and 252 g and 260 g and 253 g
[4]; Day 1, tail-cuff
  Blood Pressure (mmHg), systolic: 99.0 mmHg and 100.0 mmHg and 105.0 mmHg (2×) and 112.0 mmHg and 115.0 mmHg and 110.0 mmHg and 109.0 mmHg and 102.0 mmHg and 107.0 mmHg
[4]; Day 21 of treatment
  Body Weight: 255 g (2×) and 245 g (3×) and 260 g and 227 g and 242 g and 250 g and 249 g
[4]; Day 95 of treatment
  Body Weight: 265 g and 257 g (2×) and 273 g and 253 g and 251 g and 255 g (2×) and 263 g and 260 g
[4]; [6]
  Blood Pressure (mmHg), systolic: 108.0 mmHg and 107.0 mmHg (2×) and 104.0 mmHg and 103.0 mmHg
  Body Weight: 256 g and 261 g and 259 g and 267 g and 264 g
  Daily Drinking: 34.5 mL and 35.3 mL and 34.9 mL and 35.0 mL and 34.8 mL
[4]; inspection after 95 days
  Stomach ulcers: no stomach ulcers were observed
[4]; over the 95 day treatment period
  Average daily water consumption: 27.15 mL
[4]; stomach, kidney, heart, liver
  Inspection of main internal organs: did not reveal any gross changes
[5]; 3rd Cohort, 3.560 g/day for 10 days
  Adverse Effects (no. of participants): Nausea and Diarrhea: 1
[5]; 3.560 g/day
  Onset of diarrhea and nausea during treatment: 2 to 3 days
  Time to disappearance of diarrhea and nausea after treatment cessation: ≤ 2 days
[5]; [7]
  Discontinuations - Due to Adverse Effects (no. of participants): 1
  Free Will Discontinuations (no. of participants): 1
  Adverse Effects (no. of participants): Nausea and Diarrhea: 2
[5]; all 48 participants, 1.335-3.560 g/day
  Clinical examinations and laboratory analyses of blood samples: no abnormality in any parameter studied
[5]; of 48 participants
  Number of participants who failed to complete the study: 2
[5]; of 48 participants, all at 3.560 g/day
  Number of participants reporting mild-to-moderate side effects (diarrhea and nausea): 3
[5]; oral doses of up to 3.56 g/day
  Adverse effects: only mild, reversible diarrhea was observed
